The record followed here is US8592344B2, “Pesticidal compositions comprising 4,5-dihydroxyindan-1-one” (Yissum Research Development Company of The Hebrew …, priority 2009, dated 2013).

What is called mortality is the share of the test organisms that died. High values mean a strong lethal effect, low ones a weak lethal effect.

The test system of assay [1] is citrus rust mite, Phyllocoptruta oleivora. The assay can be described thus: whole plant or invertebrate. Particulars: recorded 24 h later. The class given is in vivo. The procedure: The CRM population was obtained from Mineola Tangelo (C. paradisi×C. reticulata) fruits at the Tzrifin farm, on the coastal plain of Israel. No acaricides are being used at this farm, making the location a suitable place for our purposes. In the laboratory the pest was reared on young seedlings (6-8 weeks old) of sour orange (Citrus aurantium).
In order to determine the CRM dose response to the toxin, 0.01, 0.02, 0.05, 0.1, 0.2 and 0.4 mg/ml of RPLC-cleaned toxin, dissolved in a two ml volume of ddH2O, was sprayed on the CRM (thirty CRMs/leaf, in four replicates). The infested seedlings were incubated at 25° C., (12L: 12D). Mite mortality rates were recorded 24 h later.

Assay [2] deals with Agrobacterium tumefaciens (strain ID1). The assay can be described thus: Antibacterial activity, inhibition haloes of chromatographed fractions. It counts as cell-based. As to conditions: RPLC fraction in 10 μl methanol, 24 hours, 28° C. The procedure: The bacterium was grown overnight in glass tubes containing a 5 ml Lennox Broth (LB, Difco). Fifty μl overnight-grown bacterial suspensions were added to 5 ml of LB containing 0.6% agar, and placed into Petri dishes (55 mm diameter). Each of the eluted chromatographed fractions was dried using a rotor evaporator, dissolved in 10 μl of methanol, pipetted into the Petri dishes and incubated at 28° C. Each dish was checked for inhibition haloes 24 hours later; 10 μl methanol alone was used as a control. This procedure was repeated four times to confirm of the toxicity of the fractions. The RPLC-cleaned fraction that was antagonistic to A. tumefaciens was concurrently assayed against the citrus rust mite (describe below).

Structures are written as SMILES.

With `O=C1CCc2c1ccc(O)c2O` [argovin, 4,5-dihydroxyindan-1-one], the mortality at 10 µg/mL in assay [1] (0.01 mg/ml sprayed, control 6%) came to 39%. In assay [1] (0.2 mg/ml sprayed), this compound had a mortality at 200 µg/mL of 100%. The “activity against A. tumefaciens (inhibition halo)” value in assay [2] was “active”.
